Values quoted from earlier work, collected in PubChem BioAssay AID1259409 (Chemical Carcinogenesis Research Information System (CCRIS), 2018).

Test system: rodent chemically induced tumor inhibition, incidence and multiplicity
Test: CCRIS tumor inhibitor studies

## O=c1c(O)c(-c2ccc(O)c(O)c2)oc2cc(O)cc(O)c12
Carcinogen: 4-NITROQUINOLINE-1-OXIDE, 56-57-5, Dose [Inhibitor]: 0, 500 PPM IN DIET FOR 10 WK BEGINNING 1 WK PRIOR TO CARCINOGEN DOSE (STUDY DURATION: 32 WK), Route [Inhibitor]: ORAL, Species: RAT, Strain/Sex: F344/MALE, Target Tissue: Type of Lesion: TONGUE: CARCINOMA, Dose [Carcinogen]: 20 PPM IN DRINKING WATER FOR 8 WK, Promoter: NONE USED
  tumour outcome (control, treated, inhibition, significance): 9/15 (60%), 2/16 (13%), 78%, p<0.05
Carcinogen: 4-NITROQUINOLINE-1-OXIDE, 56-57-5, Dose [Inhibitor]: 0, 500 PPM IN DIET FOR 10 WK BEGINNING 1 WK PRIOR TO CARCINOGEN DOSE (STUDY DURATION: 32 WK), Route [Inhibitor]: ORAL, Species: RAT, Strain/Sex: F344/MALE, Target Tissue: Type of Lesion: TONGUE: PAPILLOMA, Dose [Carcinogen]: 20 PPM IN DRINKING WATER FOR 8 WK, Promoter: NONE USED
  tumour outcome (control, treated, inhibition, significance): 4/15 (27%), 1/16 (6%), 78%, not significant
Carcinogen: 4-NITROQUINOLINE-1-OXIDE, 56-57-5, Dose [Inhibitor]: 0, 500 PPM IN DIET FOR 22 WK BEGINNING 1 WK POST CARCINOGEN TREATMENT (STUDY DURATION: 32 WK), Route [Inhibitor]: ORAL, Species: RAT, Strain/Sex: F344/MALE, Target Tissue: Type of Lesion: TONGUE: CARCINOMA, Dose [Carcinogen]: 20 PPM IN DRINKING WATER FOR 8 WK, Promoter: NONE USED
  tumour outcome (control, treated, inhibition, significance): 9/15 (60%), 1/15 (7%), 88%, p<0.05
Carcinogen: 4-NITROQUINOLINE-1-OXIDE, 56-57-5, Dose [Inhibitor]: 0, 500 PPM IN DIET FOR 22 WK BEGINNING 1 WK POST CARCINOGEN TREATMENT (STUDY DURATION: 32 WK), Route [Inhibitor]: ORAL, Species: RAT, Strain/Sex: F344/MALE, Target Tissue: Type of Lesion: TONGUE: PAPILLOMA, Dose [Carcinogen]: 20 PPM IN DRINKING WATER FOR 8 WK, Promoter: NONE USED
  tumour outcome (control, treated, inhibition, significance): 4/15 (27%), 1/15 (7%), 74%, not significant
Carcinogen: 7,12-DIMETHYLBENZ[A]ANTHRACENE, 57-97-6, Dose [Inhibitor]: 0, 0.2 ML OF A 1% SOLUTION 1/D FOR 2 WK APPLIED 5 MIN POST EACH CARCINOGEN DOSE THEN 1/D FOR 4 WK DURING PROMOTION STAGE, Route [Inhibitor]: DERMAL, Species: MOUSE, Strain/Sex: SWISS/MALE, Target Tissue: Type of Lesion: SKIN: PAPILLOMA, Dose [Carcinogen]: 0.2 ML OF A 0.24% SOLUTION IN DMSO 1/D FOR 2 WK, Promoter: CROTON OIL, 8001-28-3
  tumour outcome (control, treated, inhibition, significance): 23/23 (100%), 8/24 (33%), 67%, not calculated
Carcinogen: 7,12-DIMETHYLBENZ[A]ANTHRACENE, 57-97-6, Dose [Inhibitor]: 0, 0.2 ML OF A 1% SOLUTION 1/D FOR 2 WK APPLIED 5 MIN PRIOR TO EACH CARCINOGEN DOSE (STUDY DURATION: 20 WK), Route [Inhibitor]: DERMAL, Species: MOUSE, Strain/Sex: SWISS/MALE, Target Tissue: Type of Lesion: SKIN: PAPILLOMA, Dose [Carcinogen]: 0.2 ML OF A 0.24% SOLUTION IN DMSO 1/D FOR 2 WK, Promoter: CROTON OIL, 8001-28-3
  tumour outcome (control, treated, inhibition, significance): 23/23 (100%), 20/24 (83%), 17%, not calculated
Carcinogen: 7,12-DIMETHYLBENZ[A]ANTHRACENE, 57-97-6, Dose [Inhibitor]: 0, 3% IN DIET FOR 28 WK (STUDY DURATION: 28 WK), Route [Inhibitor]: ORAL, Species: RAT, Strain/Sex: SPRAGUE-DAWLEY/FEMALE, Target Tissue: Type of Lesion: MAMMARY GLAND: CARCINOMA, Dose [Carcinogen]: 10 MG/100 G BW ONCE
  tumour outcome (control, treated, inhibition, significance): 16/21 (76%), 10/22 (46%), 39% p<0.05
Carcinogen: 7,12-DIMETHYLBENZ[A]ANTHRACENE, 57-97-6, Dose [Inhibitor]: 1.0% IN POWDERED DIET BEGINNING 1 WK POST CARCINOGEN DOSE FOR 51 WK (STUDY DURATION: 52 WK), Route [Inhibitor]: ORAL, Species: RAT, Strain/Sex: SPRAGUE-DAWLEY/FEMALE, Target Tissue: Type of Lesion: EAR DUCT: BENIGN TUMOR, Dose [Carcinogen]: 2.5 MG/100 G BW IN 0.5 ML SESAME OIL ONCE, Promoter: NONE USED
  tumour outcome (control, treated, inhibition, significance): 7/19 (37%), 4/18 (22%), 40%, not calculated
Carcinogen: 7,12-DIMETHYLBENZ[A]ANTHRACENE, 57-97-6, Dose [Inhibitor]: 1.0% IN POWDERED DIET BEGINNING 1 WK POST CARCINOGEN DOSE FOR 51 WK (STUDY DURATION: 52 WK), Route [Inhibitor]: ORAL, Species: RAT, Strain/Sex: SPRAGUE-DAWLEY/FEMALE, Target Tissue: Type of Lesion: MAMMARY GLAND: CARCINOMA, Dose [Carcinogen]: 2.5 MG/100 G BW IN 0.5 ML SESAME OIL ONCE, Promoter: NONE USED
  tumour outcome (control, treated, inhibition, significance): 6/19 (32%), 4/18 (22%), 30%, not calculated
Carcinogen: 7,12-DIMETHYLBENZ[A]ANTHRACENE, 57-97-6, Dose [Inhibitor]: 1.0% IN POWDERED DIET BEGINNING 1 WK POST CARCINOGEN DOSE FOR 51 WK (STUDY DURATION: 52 WK), Route [Inhibitor]: ORAL, Species: RAT, Strain/Sex: SPRAGUE-DAWLEY/FEMALE, Target Tissue: Type of Lesion: MAMMARY GLAND: FIBROADENOMA, Dose [Carcinogen]: 2.5 MG/100 G BW IN 0.5 ML SESAME OIL ONCE, Promoter: NONE USED
  tumour outcome (control, treated, inhibition, significance): 15/19 (79%), 8/18 (44%), 44%, not calculated
Carcinogen: 7,12-DIMETHYLBENZ[A]ANTHRACENE, 57-97-6, Dose [Inhibitor]: 30 UMOL 2 D/WK FOR 18 WK APPLIED 30-40 MIN PRIOR TO AND CONCURRENT WITH EACH PROMOTER TREATMENT BEGINNING 10 D POST CARC, Route [Inhibitor]: DERMAL, Species: MOUSE, Strain/Sex: CD-1/FEMALE, Target Tissue: Type of Lesion: SKIN: PAPILLOMA, Dose [Carcinogen]: 200 NMOL ONCE, Promoter: 12-O-TETRADECANOYLPHORBOL-13-ACETATE, 16561-29-8
  tumour outcome (control, treated, inhibition, significance): 95%, 62%, 35%, not calculated
